Reference: PubChem BioAssay (NCI)
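Following 48 hours of exposure in 96-well plates, responses at five concentrations were used to interpolate endpoints linearly. GI50 is the concentration that inhibits growth by half. TGI marks complete inhibition of growth.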

Tests used:
Experiment in all cases: growth of human tumour cells (NCI), 48 h
M14 melanoma = test system: M14 melanoma
OVCAR-4 ovarian = test system: OVCAR-4 ovarian
CAKI-1 renal = test system: CAKI-1 renal
OVCAR-3 ovarian = test system: OVCAR-3 ovarian
RPMI-8226 leukemia = test system: RPMI-8226 leukemia
RXF 393 renal = test system: RXF 393 renal
IGROV1 ovarian = test system: IGROV1 ovarian
NCI-H226 lung = test system: NCI-H226 lung
SN12C renal = test system: SN12C renal
EKVX NSCLC = test system: EKVX NSCLC

Row | SMILES | TGI (M14 melanoma) [µM] | TGI (OVCAR-4 ovarian) [µM] | TGI (CAKI-1 renal) [µM] | TGI (OVCAR-3 ovarian) [µM] | TGI (RPMI-8226 leukemia) [µM] | TGI (RXF 393 renal) [µM] | TGI (IGROV1 ovarian) [µM] | TGI (NCI-H226 lung) [µM] | TGI (SN12C renal) [µM] | TGI (EKVX NSCLC) [µM] | GI50 (M14 melanoma) [µM] | GI50 (OVCAR-4 ovarian) [µM] | GI50 (CAKI-1 renal) [µM] | GI50 (OVCAR-3 ovarian) [µM] | GI50 (RPMI-8226 leukemia) [µM] | GI50 (RXF 393 renal) [µM] | GI50 (IGROV1 ovarian) [µM] | GI50 (NCI-H226 lung) [µM] | GI50 (SN12C renal) [µM] | GI50 (EKVX NSCLC) [µM]
1 | CC(=O)OC12c3ccccc3C1CCCCCC21OCCCO1 (stereo unspecified) | > 100 | > 100 | > 100 | > 100 | > 100 | > 100 | > 100 | > 100 | > 100 | – | – | – | – | – | – | – | – | – | – | –
2 | CCOc1ccccc1/C=C1\NC(=O)N(/C=C2\C(=O)Oc3ccccc3C2=O)C1=O | > 100 | > 100 | > 100 | > 100 | – | > 100 | > 100 | > 100 | > 100 | > 100 | – | – | – | – | – | – | – | – | – | –
3 | O=c1/c(=C/c2ccc(Cl)cc2Cl)sc2nc3ccccc3n12 | > 100 | > 100 | > 100 | > 100 | – | > 100 | > 100 | > 100 | > 100 | > 100 | – | – | – | – | – | – | – | – | – | –
4 | CC(NS(C)(=O)=O)c1ccccc1 (stereo unspecified) | > 100 | > 100 | > 100 | > 100 | > 100 | > 100 | > 100 | > 100 | > 100 | – | – | – | – | – | – | – | – | – | – | –
5 | COc1ccc(C(c2ccc(C(C)C)cc(=O)c2O)c2c(O)cc3oc(-c4ccccc4)cc(=O)c3c2O)cc1 (stereo unspecified) | 22.2 | 23 | 36.3 | 19 | 37.3 | 34.2 | 24.4 | – | 70.9 | > 100 | – | – | – | – | – | – | – | – | – | –
6 | COc1cc2c(c(OC)c1OC)-c1[nH]ncc1CC2 | > 100 | – | > 100 | > 100 | – | – | > 100 | > 100 | > 100 | > 100 | – | – | – | – | – | – | – | – | – | –
7 | CC1(O)CC2C(CC1SCCO)C2(C)C (stereo unspecified) | > 100 | > 100 | – | > 100 | > 100 | – | > 100 | – | > 100 | > 100 | – | – | – | – | – | – | – | – | – | –
8 | O=C1Nc2ccccc2C1Cc1ccccc1 (stereo unspecified) | > 100 | > 100 | > 100 | > 100 | > 100 | – | > 100 | > 100 | – | > 100 | – | – | – | – | – | – | – | – | – | –
9 | O=c1c2ccc3cccc4c(=O)cc(c5ccccc15)-c2c34 | > 100 | > 100 | > 100 | > 100 | – | > 100 | > 100 | > 100 | > 100 | > 100 | – | – | – | – | – | – | – | – | – | –
10 | O=C1CCCC/C1=C/C=C/c1ccccc1 | > 100 | > 100 | > 100 | > 100 | > 100 | > 100 | > 100 | > 100 | > 100 | – | – | – | – | – | – | – | – | – | – | –
11 | COc1cc(CSc2nc3ccc(C)cc3c(=O)n2Cc2ccccc2)cc(OC)c1OC | > 100 | 63.4 | > 100 | 7.02 | > 100 | 9.75 | > 100 | 96.1 | > 100 | – | 3.08 | 5.01 | 2.48 | 0.956 | 2.96 | 2.29 | 3.47 | 11.5 | 6.53 | –
12 | O=C(Nc1c(-c2nc3ccccc3[nH]2)sc(=S)n1-c1ccccc1)c1ccccc1 | > 100 | – | > 100 | > 100 | > 100 | > 100 | > 100 | 58.1 | > 100 | > 100 | – | – | – | – | – | – | – | – | – | –
13 | COc1cnc2c(c1)C(=O)c1c-2n(CCCn2ccnc2)c(=O)c2cc(Cl)ccc12 | 0.162 | > 100 | > 100 | 38.8 | 0.987 | 0.235 | – | 0.892 | – | > 100 | 0.0282 | 0.362 | 0.0255 | 0.129 | 0.0504 | 0.0407 | – | 0.0464 | – | 0.251
14 | C=CC1CC12C(=O)C1OC2(C)C2C(=O)c3c(ccc4c3ccc3ccccc34)C(=O)C12 (stereo unspecified) | > 100 | > 100 | 58.6 | – | > 100 | 83 | – | > 100 | > 100 | > 100 | 67.3 | > 100 | 19.1 | – | 12 | 25 | – | 54.1 | 64.3 | 78.6
15 | COC(OC)c1cccc2c1C1(O)CCC3(CC21)OCCCCO3 (stereo unspecified) | > 100 | > 100 | > 100 | > 100 | > 100 | > 100 | > 100 | > 100 | > 100 | – | – | – | – | – | – | – | – | – | – | –
16 | C(=C\c1csnn1)/c1cccnc1 | > 100 | > 100 | – | > 100 | > 100 | > 100 | – | > 100 | > 100 | > 100 | – | – | – | – | – | – | – | – | – | –

Row | SMILES | TGI (M14 melanoma) [µM] | TGI (OVCAR-4 ovarian) [µM] | TGI (CAKI-1 renal) [µM] | TGI (OVCAR-3 ovarian) [µM] | TGI (RPMI-8226 leukemia) [µM] | TGI (RXF 393 renal) [µM] | TGI (IGROV1 ovarian) [µM] | TGI (NCI-H226 lung) [µM] | TGI (SN12C renal) [µM] | TGI (EKVX NSCLC) [µM] | GI50 (M14 melanoma) [µM] | GI50 (OVCAR-4 ovarian) [µM] | GI50 (CAKI-1 renal) [µM] | GI50 (OVCAR-3 ovarian) [µM] | GI50 (RPMI-8226 leukemia) [µM] | GI50 (RXF 393 renal) [µM] | GI50 (IGROV1 ovarian) [µM] | GI50 (NCI-H226 lung) [µM] | GI50 (SN12C renal) [µM] | GI50 (EKVX NSCLC) [µM]
17 | COc1ccc2c3c1C(=O)CCC3CO2 (stereo unspecified) | > 100 | > 100 | > 100 | > 100 | > 100 | – | > 100 | – | > 100 | > 100 | – | – | – | – | – | – | – | – | – | –
18 | CC(=O)OC1CC2CCC1(C)C2(C)C (stereo unspecified) | > 100 | > 100 | – | > 100 | > 100 | > 100 | > 100 | > 100 | > 100 | – | – | – | – | – | – | – | – | – | – | –
19 | CCCCCCCCCCCC(=O)OCC1OC(n2cc(F)c(=O)[nH]c2=O)C(N)C(OC(=O)CCCCCCCCCCC)C1O (stereo unspecified) | > 100 | > 100 | > 100 | > 100 | > 100 | > 100 | – | – | > 100 | > 100 | – | – | – | – | – | – | – | – | – | –
20 | ClCCN(CCCl)c1ccc(-n2cnc3c(Cl)ncnc32)cc1 | 3.88 | 3.33 | 2.05 | 3.15 | 59.1 | 3.33 | – | 27.7 | 10.2 | 3.66 | 1.96 | 1.85 | 0.697 | 1.77 | 9.69 | 1.86 | – | 13.3 | 3.17 | 1.65
21 | O=C1/C(=C/c2ccccc2Cl)N=C(c2ccccc2)N1Cc1ccco1 | 38.2 | – | > 100 | > 100 | > 100 | 93 | – | – | > 100 | > 100 | 18.6 | – | 94.3 | 26.9 | 25.4 | 16.4 | – | – | 50.6 | 54
22 | C=C=C(C)[Si](C)(C)C | > 100 | > 100 | > 100 | > 100 | > 100 | > 100 | > 100 | > 100 | > 100 | – | – | – | – | – | – | – | – | – | – | –
23 | C1COC(NC(C2CC2)C2CC2)=N1 | > 100 | > 100 | > 100 | > 100 | > 100 | > 100 | > 100 | > 100 | – | > 100 | – | – | – | – | – | – | – | – | – | –
24 | O=c1ccccc2cccc(O)c12 | > 100 | > 100 | > 100 | > 100 | > 100 | > 100 | > 100 | – | > 100 | > 100 | – | – | – | – | – | – | – | – | – | –
25 | O=C(COc1cccc(/C=C2\COc3ccccc3C2=O)c1)Nc1nccs1 | 3.71 | 14.3 | 3.56 | 3.51 | 3.69 | – | – | 25.1 | 5.25 | 17.1 | 1.85 | 3.99 | 1.61 | 2.03 | 1.29 | – | – | 4.62 | 2.08 | 4.11
26 | Nc1cc(-c2ccccc2)ccc1O | > 100 | > 100 | 79.9 | > 100 | – | > 100 | > 100 | > 100 | > 100 | > 100 | > 100 | 36.5 | 17.9 | 68.8 | – | > 100 | > 100 | > 100 | 68.9 | 82.2
27 | O=C(O)/C(=C/c1ccccc1[N+](=O)[O-])c1ccccc1 | > 100 | > 100 | > 100 | > 100 | > 100 | – | > 100 | > 100 | > 100 | > 100 | – | – | – | – | – | – | – | – | – | –
28 | O=C(N/N=C1\CCc2ccccc2C1)N/N=C1\CCc2ccccc2C1 | > 10 | > 10 | > 10 | > 10 | > 10 | > 10 | – | > 10 | > 10 | > 10 | – | – | – | – | – | – | – | – | – | –
29 | CCCCC(=O)N/N=C/c1cc(I)cc(I)c1O | 14.8 | 12.7 | 10.5 | 16.9 | 30.1 | 27.2 | 17.2 | 36.7 | 26.1 | – | 2.7 | 0.918 | 1.58 | 2.9 | 3.95 | 5.39 | 2.32 | 5.93 | 3.77 | –
30 | Nc1ccc(Nc2nc(F)nc(-c3c4ccccc4c4n3CCS4)n2)cc1 | 31.6 | 29.4 | 23.6 | 34.7 | – | 43.3 | 29.9 | 25.9 | 33.4 | 48.2 | – | – | – | – | – | – | – | – | – | –
31 | COc1ccc(O)c(C(=O)c2ccc(C(=O)O[C@@H]3CCCNC[C@H]3NC(=O)c3ccncc3)cc2)c1F | > 25 | > 25 | > 25 | > 7.35 | > 25 | 0.839 | > 25 | > 25 | > 25 | – | 1.2 | 7.9 | 0.543 | 0.961 | 1.25 | 0.162 | 0.493 | 1.68 | 1.34 | –
